Test results: patent US20120270935A1, “FORMULATIONS” (priority 2009, published 2012)
Where two headings read alike, the source gives them in different places.

Tests used:
S. pyogenes ATCC 12344 = test: Disc diffusion assay (DDA); type: cell-based, Streptococcus pyogenes; conditions: 200 μg per disc; Mueller-Hinton agar pH 7.0; 48 hours at 37° C., 5% carbon dioxide
Text: (a) staphylococci. The Staphylococcus aureus strain used was ATCC 29213. S. aureus and other staphylococci are common causes of a wide range of skin, skin structure and wound infections; S. aureus is also known to exacerbate eczema. The ATCC 29213 strain is known to be susceptible to beta-lactam antibiotics such as methicillin. The Staphylococcus epidermidis strain used was NCTC 11047. Staph. epidermidis forms part of the resident flora of skin and is an opportunistic pathogen which can cause biofilms to grow for instance on plastic surgical implants such as catheters. Unless otherwise stated, the staphylococci were cultured and maintained on Mueller-Hinton Medium (agar and broth) at pH 7.2; cultures were incubated aerobically at 37° C. for 19-20 hours, at pH 7 (±0.2). (b) C. striatum NCTC 764. Corynebacterium striatum is closely related to organisms (aerobic diphtheroids of the genus Corynebacterium) that cause body odour. It was cultured and maintained on Mueller-Hinton medium (agar and broth). All cultures were incubated aerobically at 37° C. for 72 hours, at pH 7 (±0.2). (c) streptococci. The strains tested were S. mutans ATCC 25175 and S. pyogenes ATCC 12344. […] The diameter of this zone of “inhibition” was measured using a ProtoCOL™ automated zone sizer (Synbiosis, Cambridge, UK). […]

P. acnes NCTC 737 = test: Supplemented disc diffusion assay (lipid or salt); type: cell-based, Propionibacterium acnes; conditions: 200 μg compound per disc; for zone of inhibition at 200 µg/disc: Cutibacterium acnes, NCTC737
Protocol: A sterile paper disc was impregnated with a sample of the test compound in a suitable solvent and 30 minutes allowed for the solvents to evaporate (where possible). The disc was then placed on an agar plate onto which the test micro-organism had been inoculated. The plate was then incubated under the conditions described above, following which it was examined visually for signs of microbial growth. If the test compound had antimicrobial activity, a circular zone of no growth would be obtained around the disc. The diameter of this zone of “inhibition” was measured using a ProtoCOL™ automated zone sizer (Synbiosis, Cambridge, UK). In general, a greater diameter and/or area of the zone of inhibition indicates a greater antimicrobial activity in the relevant test compound, although other factors such as test compound mobility through the agar gel may also influence the result.
The DDA test may be carried out using an agar gel supplemented with lipid and/or salt to simulate some of the major components present in human skin and to assess whether these substances might affect the antimicrobial activity observed for the test compound. Performance under these conditions can provide a more reliable indication of activity on topical application. […]
The compounds copper (II) usnate (Just for Today Ltd), sodium usnate (Yick-Vic Chemicals) and usnic acid (Sigma-Aldrich) were tested against P. acnes NCTC 737, using MIC, MBC and DDA assays as described above. For copper usnate and usnic acid, supplemented DDA assays were also carried out. DMSO was used as the solvent for all three test compounds. For the DDAs, 200 μg of the relevant test compound was loaded onto each disc. The MIC and MBC assays were conducted in triplicate, as were the DDAs for copper usnate.

[1] = system: S. epidermidis NCTC 11047; test: Disc diffusion assay (DDA); type: cell-based, Staphylococcus epidermidis; conditions: 200 μg per disc; Mueller-Hinton agar pH 7.0; overnight at 37° C. in air
Text: (a) staphylococci. The Staphylococcus aureus strain used was ATCC 29213. S. aureus and other staphylococci are common causes of a wide range of skin, skin structure and wound infections; S. aureus is also known to exacerbate eczema. The ATCC 29213 strain is known to be susceptible to beta-lactam antibiotics such as methicillin. The Staphylococcus epidermidis strain used was NCTC 11047. Staph. epidermidis forms part of the resident flora of skin and is an opportunistic pathogen which can cause biofilms to grow for instance on plastic surgical implants such as catheters. Unless otherwise stated, the staphylococci were cultured and maintained on Mueller-Hinton Medium (agar and broth) at pH 7.2; cultures were incubated aerobically at 37° C. for 19-20 hours, at pH 7 (±0.2). (b) C. striatum NCTC 764. […]
A sterile paper disc was impregnated with a sample of the test compound in a suitable solvent and 30 minutes allowed for the solvents to evaporate (where possible). […] The diameter of this zone of “inhibition” was measured using a ProtoCOL™ automated zone sizer (Synbiosis, Cambridge, UK). […]
Example 8 was repeated (except for the supplemented DDA assays), using S. aureus ATCC 29213 as the test organism. […] In the DDA assays, 200 μg is of each compound was loaded onto each disc: the culture medium was Mueller-Hinton agar at pH 7.0, and results were recorded after overnight incubation at 37° C. in air. […]

SMILES: CC(=O)c1c([O-])c(C)c([O-])c2c1OC1=CC(=O)C(C(C)=O)C(=O)C12C.[Cu+2] (stereo not drawn) [Copper usnate, copper (II) usnate]
- DDA zone diameter (S. pyogenes ATCC 12344): 31.3 ± 0.6 mm
- DDA zone diameter, +1% NaCl (P. acnes NCTC 737; medium +1% NaCl): 42.9 ± 0.4 mm
- DDA zone diameter, +1% triolein (P. acnes NCTC 737; medium +1% triolein): 27.4 ± 1.5 mm
- DDA zone diameter [1]: 25.7 ± 0.6 mm

SMILES: CC(=O)c1c(O)c(C)c(O)c2c1OC1=CC(=O)C(C(C)=O)C(=O)C12C (stereo not drawn) [Usnic acid, 2,6-diacetyl-7,9-dihydroxy-8,9b-dimethyl-1,3(2H,9bh)-dibenzofurandione]
- zone of inhibition at 200 µg/disc (P. acnes NCTC 737; medium +1% NaCl, read-out: DDA zone diameter, +1% NaCl): 29.8 mm
- zone of inhibition at 200 µg/disc (P. acnes NCTC 737; medium +1% triolein, read-out: DDA zone diameter, +1% triolein): 10.9 mm
